Earlier results as cited in patent US20080262061A1, “COMPOSITION AND USE OF A LIQUID FUNGICIDAL FORMULATION OF MYCLOBUTANIL OR TEBUCONAZOLE FUNGICIDE” (HELENA HOLDING COMPANY, priority 2007, published 2008).

Details: background statement

SMILES	water solubility
CC(C)(C)C(O)(CCc1ccc(Cl)cc1)Cn1cncn1 (racemic) [tebuconazole, (RS)-1-p-chlorophenyl-4,4-dimethyl-3-(1H-1,2,4-triazol-1-ylmethyl)═pentan-3-ol]	not significantly water soluble
CCCCC(C#N)(Cn1cncn1)c1ccc(Cl)cc1 (centres unmarked) [Myclobutanil, 2-p-chlorophenyl-2-(1H-1,2,4-triazol-1-ylmethyl)hexanenitrile]	not significantly water soluble
